Laboratory results published in patent US9206191B2, “Indazoles for the treatment and prophylaxis of respiratory syncytial virus infection” (Hoffmann-La Roche Inc., priority 2012, dated 2015).
Values belong to the compound of their own block, whether it stands above or below them.

Legend:
RSV Long strain = assay: Viral Cytopathic Effect (CPE) Assay; format: cell-based; details: human respiratory syncytial virus, 144 h, cell viability after 6 days, Cell Counting kit-8
[1] = single dose PK in male ICR mouse (IV and PO); format: in vivo; details: male ICR mice; for AUC(0-t) / half-life: mouse, plasma
Description: The single dose PK in male ICR mouse was performed to assess their pharmacokinetic properties. Two groups of animals were dosed via either bolus intravenous (IV) or oral gavage (PO) of the respective compound. The animals for oral administration were fasted overnight prior to dosing and food was resumed 4 hours postdose. Blood samples (approximately 400 μL) were collected via cardiac puncture after euthanasia by carbon dioxide inhalation at 2 min, 5 min, 15 min, 30 min, 1 h, 2 h, 4 h, 6 h, 8 h, and 24 h postdose for IV group, and at 5 min, 15 min, 30 min, 1 h, 2 h, 4 h, 6 h, 8 h, and 24 h postdose for PO group. Blood samples were placed into tubes containing sodium heparin and centrifuged at 8000 rpm for 6 minutes at 4° C. to separate plasma from the samples. Following centrifugation, the resulting plasma was transferred to clean tubes for bioanalysis on LC/MS/MS. The pharmacokinetic parameters were calculated using non-compartmental module of WinNonlin® Professional 5.2.

RSV = details: Phase III clinical trials; cited from earlier work
RSV infection = details: intramuscularly at 15 mg/kg once a month for the duration of RSV season; selected infants; cited from earlier work

EC50 (RSV Long strain): 5 nM
CLz ([1]; IV (2 mg/kg)): 43.4 mL/min/kg
F ([1]; PO (6 mg/kg)): 46.0%
AUC(0-t) ([1]; IV (2 mg/kg)): 760 ng·h/mL
half-life ([1]; IV (2 mg/kg)): 1.26 h
AUC(0-t) ([1]; PO (6 mg/kg)): 1050 ng·h/mL
half-life ([1]; PO (6 mg/kg)): 0.831 h
Compound: CS(=O)(=O)c1nn(Cc2nc3cc(Cl)ccc3n2CCCC(F)(F)F)c2cnccc12 [Example 4-3, 1-{[5-Chloro-1-(4,4,4-trifluorobutyl)-1H-benzimidazol-2-yl]methyl}-3-(methylsulfonyl)-1H-pyrazolo[3,4-c]pyridine]

Compound: motavizumab: A newer version monoclonal antibody, designed as potential replacement of palivizumab
benefit over palivizumab (RSV): failed to show additional benefit over palivizumab

Compound: palivizumab: a humanized monoclonal antibody against RSV fusion (F) protein approved for prophylaxis in high-risk infants
reduction of hospitalization rate caused by RSV infection (RSV infection): 45-55%
